Test: in vitro
Conditions: human, hela cells, % viability

SMILES	viability at 28.5 h, 10 µM
CC(Cc1cnccn1)NC(=O)Nc1cc(N2CCOCC2)ccc1Cl (centres unmarked) [CBK306954]	111%
Cc1ccc(-c2nnc(CNC(=O)C(c3ccccc3)c3ccccc3)o2)s1 [CBK286299]	102%
COc1ccc(-c2n[nH]c(=S)n2CC(=O)Nc2ccc(NC(=O)CC(C)C)cc2)cc1 [CBK295342]	100%
Cc1ccsc1C(C)NC1CCCN(c2ccn(C)n2)C1=O (centres unmarked) [CBK306419]	106%
Cc1nn(C)cc1CN(C)S(=O)(=O)c1cccc([N+](=O)[O-])c1 [CBK265399]	79.9%
COc1cccc(C(c2nnnn2C(C)(C)C)N2CCN(c3cccc(Cl)c3)CC2)c1 (centres unmarked) [CBK141669]	112%
FC(F)(F)c1nc2ccccc2nc1OCCN1CCNCC1 [CBK113302]	99.4%
CC(Nc1nc(N2CCN(CCO)CC2)nc2ccccc12)c1ccccc1 (centres unmarked) [CBK269427]	106%
CCC(=O)Nc1nc2ccccc2n1CCCN(C)C [CBK263492]	102%
COC(=O)c1c(C)n[nH]c1COc1ccccc1 [CBK057823]	92.1%
COc1ccc(-c2csc(Nc3ccc(S(=O)(=O)Nc4cc(C)on4)cc3)n2)cc1OC [CBK261797B]	95.3%
Nc1ccc(Cc2ccc(N)c(C(=O)O)c2)cc1C(=O)O [CBK261153]	92.3%
CCNc1nc2c(ncn2C2CC(O)C(CO)O2)c(=O)[nH]1 (centres unmarked) [CBK201189]	99.6%
CCCc1n[nH]c(C2CN(CCn3cccn3)CCO2)n1 (centres unmarked) [CBK304842]	106%
Nc1cccc(Oc2ccc(C(c3ccc(Oc4cccc(N)c4)cc3)(C(F)(F)F)C(F)(F)F)cc2)c1 [CBK261645]	103%
COc1cccc2cc([C@H]3CN(C(=O)C(C)(C)N)C[C@@H]3C(=O)N3CCC4(CC3)CN(S(C)(=O)=O)c3ccccc34)oc12 [CBK001347C]	117%
Cc1cc(C)nc(Nc2n[nH]c(-c3cccc4ccccc34)n2)n1 [CBK266451]	99.3%
O=C(CO)N1CC2(CCN(Cc3ccc(OC(F)(F)F)cc3)CC2)c2ccccc21 [CBK131493]	106%
COc1ccc(CN2CCN(S(=O)(=O)c3ccc(Cl)cc3)CC2)cc1OC [CBK264204G]	104%
O=[N+]([O-])c1ccc(S(=O)(=O)N2CCN(S(=O)(=O)c3ccc(Cl)cc3)CC2)cc1 [CBK264312]	118%
COc1ccccc1N1CCN(c2c(C)c(C)nc3cc(-c4nccn4C)nn23)CC1 [CBK286182]	87.5%
CC(C)(C)/N=C1/SCC(C)(/C=N\O)S1 (centres unmarked) [CBK009726]	98.7%
CSc1nsc(SCC(=O)c2ccc3c(c2)OCCO3)n1 [CBK268904]	108%

SMILES	viability at 28.5 h, 10 µM
CC(C)N1CCC[C@H]1c1nc(-c2ccc(N3CCN(C)CC3)nc2)no1 [CBK288881]	83.6%
COc1cccc(CNc2nccc(-n3nc(C)cc3C)n2)c1 [CBK288612]	96%
O=C(O)CCC1C(=O)CCC1(C(=O)O)c1ccccc1 (centres unmarked) [CBK287208]	108%
CCn1c(C(C)NC2CCN(CC(=O)OC)CC2)nc2ccccc21 (centres unmarked) [CBK305396]	97.9%
CN(C)CCOc1ccc2c(c1)OC1(CCN(C(=O)c3ccc4sc(N)nc4c3)CC1)CC2=O [CBK169380]	91.4%
OCc1ccc(OCCCOc2cccc3cccnc23)cc1 [CBK269674]	85.8%
C=CCn1c(S)nnc1-c1ccc(Br)cc1 [CBK096756]	77.3%
O=C(NCCC1SC(NC2CCCCCC2)=NC1=O)Nc1ccc(C(F)(F)F)cc1Cl (centres unmarked) [CBK067682]	89.9%
CCCCC(C(=O)O)N1C(=O)c2ccccc2C1=O (centres unmarked) [CBK287153]	101%
O=C(O)COc1ccc(Br)cn1 [CBK026021]	104%
CC(C)(C)OC(=O)N1CCC(Oc2cncc(Cl)n2)CC1 [CBK001762]	98%
CN1CCC(N2CCN(C(=O)c3cnc(-c4ccccn4)nc3C(F)(F)F)CC2)CC1 [CBK149089]	107%
O=C(CN1CCC(NC(=O)c2cccs2)CC1)Nc1ccc(F)c(F)c1 [CBK305991]	83.8%
COc1ncccc1-c1csc(N2CCOC(C)C2)n1 (centres unmarked) [CBK304118]	81.8%
O=C(NCCOc1ccccc1)N1CCN(Cc2ccccc2)CC1 [CBK155652]	93.3%
Clc1ccc(CN2CCN(c3nccnc3OCCN3CCOCC3)CC2)cc1Cl [CBK082884T]	96.7%
COc1ccc(CNCCN2CCOCC2)c(OC)c1 [CBK278180C]	90.1%
Cc1cc(NC(=O)c2nn(-c3nc4ccccc4s3)c3ccccc23)no1 [CBK048489]	95.4%
COc1ccc(C(=O)Nc2ccccc2N2CCNCC2)cc1 [CBK029447T]	107%
CC(C)Nc1cc(SCc2ccc(F)cc2)ncn1 [CBK107158]	93.9%
COc1cc(OC)nc(CN2CCOC3(CCN(C(=O)c4ccc5ccccc5c4)CC3)C2)n1 [CBK161121A]	91.6%
COc1cccc(CN2CCC3(CCCNC3=O)CC2)c1 [CBK284824]	96.6%
Nc1nnc(C(=O)c2cc(Br)ccc2N)s1 [CBK009811]	102%

SMILES	viability at 28.5 h, 10 µM
CC(C)(C)c1ccc(O)c(NC(=S)NC(=O)c2cccc(OCc3ccccc3)c2)c1 [CBK269018]	97.3%
COc1ccc(CNC(=O)C[C@@H]2[C@H](O)CCC3[C@]4(C)CO[C@@H](CN)O[C@@H]4CC[C@]32C)cc1 (some centres unmarked) [CBK289575]	109%
CC1CCc2sc(C(=O)N3CCC4(CC3)NC(=O)NC4=O)cc2C1 (centres unmarked) [CBK304992]	89.1%
COc1ccc(CN2CCCN(C(=O)c3ccc(C#N)cc3)CC2)cc1 [CBK305273]	91.4%
Clc1cc2nc(OC3CCCNC3)c(N3CCCC3)nc2cc1Cl (centres unmarked) [CBK113454]	108%
Cc1cc(O)n(-c2cc(-c3ccccc3)nc(-c3ccccc3)n2)n1 [CBK262014]	95.5%
CSCCCNC(=O)c1ccccc1Nc1cccc(C(F)(F)F)c1 [CBK149551]	71.3%
COCCNc1nc2c(c(N3CCCCCC3)n1)CCNCC2 [CBK306724]	104%
Cc1nnc(Nc2ccc3c(c2)nc2n3CCN(C3CCCCC3)C2)c2ccccc12 [CBK268042]	90.9%
O=C(Cc1cccc(F)c1)N1CCC(O)(c2ccccn2)CC1 [CBK283586]	100%
O=C1CC[C@@H](NCc2cccc(O)c2)[C@H](c2cc(F)cc(F)c2)N1 [CBK282909]	98%
Cc1cc(CNC(=O)C(C)Cn2cccn2)on1 (centres unmarked) [CBK281486]	90.9%
O=C(CCN1CCCCC1)NC1Cc2ccccc2C1 [CBK200364]	98.3%
COc1ccc(-c2c[nH]c([C@@H]3COCCN3Cc3ccc(C(=O)O)cc3)n2)cc1 [CBK289305]	84.1%
COc1cc(Br)cc(C2NC(=O)c3cnc(SC)nc3N2)c1O (centres unmarked) [CBK291179]	91.9%
Cc1noc(C)c1CN1CCC(c2ccccc2)C1 (centres unmarked) [CBK304451]	109%
O=C(CCC1CCCC1)n1ccn(C(c2ccccc2)c2ccccc2)c1=O [CBK106619]	103%
COc1ccc([C@@]23CC[C@@H](NC(=O)Nc4cc(F)c(C#N)cc4F)C[C@@H]2N(C)CC3)cc1OC [CBK073979T]	98.2%
CCN(CC)CCN(C(=O)N1CCCC1)c1c(C)cccc1C [CBK023237C]	98.7%
CCOc1ccc(CC(=O)N2CCC(c3ccncc3)CC2)cc1 [CBK283596]	87.8%
C[S+]([O-])c1nc2ccccc2s1 (centres unmarked) [CBK028233]	93.5%
O=C(O)c1c2c(nc3ccccc13)C(=Cc1ccc3c(c1)OCCO3)CC2 [CBK297479]	96.3%
Cc1cc(C)n(C(CC(=O)N2CCCCC2)C(=O)O)n1 (centres unmarked) [CBK286806]	85.6%

SMILES	viability at 28.5 h, 10 µM
CN(C)C(=O)CN1C(=O)[C@H]2CCCN2C(=O)c2ccccc21 [CBK282854]	91.2%
CN(Cc1ccc2ncccc2c1)C(=O)CC1CCN(CCc2ccccc2)CC1 [CBK286261]	108%
Cc1ccc(NC(=O)c2cc(NC(=O)c3ccccc3C(=O)O)ccc2N2CCCCC2)cc1 [CBK265332]	100%
Cc1ccc2c(c1)CC(=O)NC21CCN(CCc2noc3ccccc23)CC1 [CBK081072]	92.2%
Cc1ccc(S(=O)(=O)Nc2ccsc2C(=O)N2CCOCC2)cc1[N+](=O)[O-] [CBK004612]	81.7%
O=C(O)CCCN1C(=O)/C(=C/c2ccc(O)c(O)c2)SC1=S [CBK262852]	84.9%
CC(=O)Nc1ccc(-c2cncc(N(CCO)CCO)n2)cc1 [CBK065789]	106%
S=C(NCc1ccco1)Nc1nn(Cc2ccc(Cl)cc2Cl)cc1Cl [CBK267021]	80.7%
Cc1cccc(CN(CC(C)(C)CN)C(=O)NC(C)c2cccc3ccccc23)n1 (centres unmarked) [CBK002423C]	84.4%
Cc1ccc(Cl)cc1N(Cc1ccc(C(=O)N2CCC(C)CC2)cc1)S(=O)(=O)c1ccccc1 [CBK033646]	107%
CC(C)NC(=O)N1Cc2nc[nH]c2C[C@H]1c1nc(-c2ccccc2)no1 [CBK288996]	83%
CCOC(=O)CN1CCN(c2nccnc2OCCN2CCOCC2)CC1 [CBK082897]	93.9%
CCC1CCC2(CC1)NC(=O)N(CC(=O)Nc1nccs1)C2=O (centres unmarked) [CBK305936]	95.9%
Cc1cc(=O)oc2cc(OCC(=O)Nc3cccc(C(=O)O)c3)ccc12 [CBK287058]	85%
Cc1cc(COc2cc(N3CCCC3)ncn2)no1 [CBK115898]	93.1%
Cc1nn(-c2cccc(Br)c2)c(C)c1[C@@H]1C=C[C@@H](NS(C)(=O)=O)C1 [CBK288806]	86.3%
CSc1nnc(CCCNC(=O)c2cccc(C#N)c2)n1CC(C)C [CBK306023]	108%
Nc1ncc(-c2cccc(O)c2)nc1-c1ccc(C=O)cc1 [CBK064088]	104%
CN(C)c1ccc(-c2ccnc3nc(N)ccc23)cc1 [CBK067640]	85.8%
Cc1ccccc1OCC(O)CN1CCCC(C(F)(F)F)C1 (centres unmarked) [CBK304873]	103%

Source: article PMC12040169 (PLOS Biology, 2025)
